{"source": "patent US11351192B2", "about": "“De-colonization drug, preparation method therefor, and application thereof” (BEIJING HYGIENE & HEALTHCARE INNOVATION TECHNOLOGY CO., LTD., priority 2017, dated 2022)", "tested_on": "multi-drug resistant bacteria", "format": "in vivo, hospitalized patients", "text": "Using the case-control experiment, all newly-increased patients with multi-drug resistant bacteria in the cooperative hospital are selected for a period of time. The hospitalized patients are divided into the control group and the experimental group, and the control group is selected to be applied intranasally with mupirocin for 5 consecutive days and twice daily.\nDuring the experiment, it can be found by electron microscopy at 200-fold whether mucosa has interstitial edema, inflammatory cell infiltration or surface epithelial cell shedding; it can show by electron microscopy at 6000-fold whether the mitochondria in the glandular epithelial cells are swollen or edema, it can show by electron microscopy at 10000-fold whether the morphology and structure of the ciliated epithelial cells is normal. FIGS. 1 and 2 are the electron microscopic images of the nasal mucosa by electron microscopy at 200-fold.", "key": {"[1]": {"details": "hospitalized patients, decolonization drug twice a day 3 days, mupirocin twice daily 5 days"}}, "data": [{"smiles": "C/C(=C\\C(=O)OCCCCCCCCC(=O)O)C[C@@H]1OC[C@H](C[C@@H]2O[C@H]2[C@@H](C)[C@H](C)O)[C@@H](O)[C@H]1O", "note": "[mupirocin]", "values": [{"measurement": "cases of methicillin-resistant Staphylococcus aureus (MRSA)", "setting": "[1]", "result": 35, "unit": "cases"}, {"measurement": "cases of multi-drug resistant bacteria", "setting": "[1]", "result": 120, "unit": "cases"}, {"measurement": "ratio of MRSA cases among multi-drug resistant bacteria cases", "setting": "[1]", "result": 29.16, "unit": "%"}, {"measurement": "adverse reactions (edema and hyperemia symptoms of nasal mucosa)", "setting": "human, in vivo, 5 days", "result": 2}]}]}
